Source: ChEMBL document CHEMBL5352436, “Triterpenoid pyrazines and pyridines - Synthesis, cytotoxicity, mechanism of action, preparation of prodrugs” (Eur J Med Chem, 2022)
pIC50: −log10 of the molar value.

Legend:
[1] = Cytotoxicity against human BJ cells assessed as reduction in cell viability incubated for 72 hrs by MTS assay; format: toxicity, cell-based
[2] = Cytotoxicity against human MRC5 cells assessed as reduction in cell viability incubated for 72 hrs by MTS assay; format: toxicity, cell-based
[3] = test system: CCRF-CEM; assay: Cytotoxicity against human CCRF-CEM cells assessed as reduction in cell viability incubated for 72 hrs by MTS assay; format: functional, cell-based
[4] = Cytotoxicity against human HCT116-p53-null cells assessed as reduction in cell viability incubated for 72 hrs by MTS assay; format: functional, cell-based
[5] = test system: A549; assay: Cytotoxicity against human A549 cells assessed as reduction in cell viability incubated for 72 hrs by MTS assay; format: functional, cell-based; settings: A549, 72 h
[6] = Cytotoxicity against human K562-Tax cells assessed as reduction in cell viability incubated for 72 hrs by MTS assay; format: functional, cell-based
[7] = test system: K562; assay: Cytotoxicity against human K562 cells assessed as reduction in cell viability incubated for 72 hrs by MTS assay; format: functional, cell-based; settings: K562, 72 h
[8] = test system: CEM-DNR; assay: Cytotoxicity against human CEM-DNR cells assessed as reduction in cell viability incubated for 72 hrs by MTS assay; format: functional, cell-based
[9] = test system: U2OS; assay: Cytotoxicity against human U2OS cells assessed as reduction in cell viability incubated for 72 hrs by MTS assay; format: functional, cell-based
[10] = test system: HCT-116; assay: Cytotoxicity against human HCT-116 cells assessed as reduction in cell viability incubated for 72 hrs by MTS assay; format: functional, cell-based; settings: HCT-116, 72 h

| Structure (SMILES) | IC50 at 72 h [1] | IC50 at 72 h [2] | pIC50 [3] | pIC50 [4] | pIC50 [5] | pIC50 [6] | pIC50 [7] | pIC50 [8] | pIC50 [9] | pIC50 [10] |
| --- | --- | --- | --- | --- | --- | --- | --- | --- | --- | --- |
| CC1(C)CC[C@]23CC[C@]4(C)[C@H](CC[C@@H]5[C@@]6(C)Cc7nccnc7C(C)(C)[C@@H]6CC[C@]54C)[C@H]2[C@H]1OC3 | > 50 µM | > 50 µM | < 4.30 | < 4.30 | < 4.30 | < 4.30 | < 4.30 | < 4.30 | < 4.30 | < 4.30 |
| CC1=CC[C@]2(C(=O)O)CC[C@]3(C)C(=CC[C@@H]4[C@@]5(C)Cc6cccnc6C(C)(C)[C@@H]5CC[C@]43C)[C@H]2[C@@H]1C | > 50 µM | > 50 µM | 5.20 | 4.47 | 4.70 | 4.89 | 4.92 | 4.96 | 4.46 | 4.47 |
| C#CCOC(=O)[C@]12CC[C@@H](C(=C)C)[C@@H]1[C@H]1CC[C@@H]3[C@@]4(C)CC[C@H](O)C(C)(C)[C@@H]4CC[C@@]3(C)[C@]1(C)CC2 | 32 µM | 26 µM | 4.62 | 4.51 | 4.37 | 4.44 | 4.37 | 4.40 | 4.51 | 4.48 |
| C#CCOC(=O)[C@]12CC[C@@H](C(=C)C=O)[C@@H]1[C@H]1CC[C@@H]3[C@@]4(C)CC[C@H](O)C(C)(C)[C@@H]4CC[C@@]3(C)[C@]1(C)CC2 | 7.1 µM | 1.7 µM | 6.06 | 5.82 | 5.89 | 5.89 | 5.74 | 5.85 | 5.80 | 5.77 |
| CC1(C)CC[C@]2(C(=O)O)CC[C@]3(C)C(=CC[C@@H]4[C@@]5(C)CCC(=O)C(C)(C)[C@@H]5CC[C@]43C)[C@@H]2C1 [OLEANONIC ACID] | > 50 µM | > 50 µM | 5.02 | < 4.30 |  | 4.68 | < 4.30 | 4.77 |  |  |
| CC(C)[C@@H]1CC[C@]2(C(=O)O)CC[C@]3(C)[C@H](CC[C@@H]4[C@@]5(C)CCC(=O)C(C)(C)[C@@H]5CC[C@]43C)[C@@H]12 [DIHYDROBETULONIC ACID] | > 50 µM | > 50 µM | 5.20 | 4.44 |  | 4.96 |  | 4.32 | 4.57 |  |
| C[C@H]1[C@H](C)CC[C@]2(C(=O)O)CC[C@]3(C)C(=CC[C@@H]4[C@@]5(C)CCC(=O)C(C)(C)[C@@H]5CC[C@]43C)[C@H]12 [URSONIC ACID] | > 50 µM | > 50 µM | 4.80 | < 4.30 | 4.30 | 4.57 | < 4.30 | 4.72 | < 4.30 | 4.33 |
| C=C(C)[C@@H]1CC[C@]2(C(=O)OCc3oc(=O)oc3C)CC[C@]3(C)[C@H](CC[C@@H]4[C@@]5(C)Cc6cccnc6C(C)(C)[C@@H]5CC[C@]43C)[C@@H]12 | > 50 µM | > 50 µM | 4.46 | < 4.30 | 4.30 | 4.31 | 7.43 | 4.32 | < 4.30 | < 4.30 |
| Cc1oc(=O)oc1COC(=O)[C@]12CC[C@@H](C(C)C)[C@@H]1[C@H]1CC[C@@H]3[C@@]4(C)Cc5nccnc5C(C)(C)[C@@H]4CC[C@@]3(C)[C@]1(C)CC2 | > 50 µM | > 50 µM | 4.77 | 4.36 | 4.39 | 4.92 | 7.59 | 4.30 | 4.40 | < 4.30 |
| C[C@H]1[C@H](C)CC[C@]2(C(=O)O)CC[C@]3(C)C(=CC[C@@H]4[C@@]5(C)Cc6cccnc6C(C)(C)[C@@H]5CC[C@]43C)[C@H]12 | > 50 µM | > 50 µM | 4.42 | < 4.30 | < 4.30 | 4.33 | 4.49 | 4.40 | < 4.30 | < 4.30 |
| C[C@H]1[C@H](C)CC[C@]2(C(=O)O)CC[C@]3(C)C(=CC[C@@H]4[C@@]5(C)Cc6nccnc6C(C)(C)[C@]5(C)CC[C@]43C)[C@H]12 | > 50 µM | > 50 µM | 4.72 | < 4.30 | < 4.30 | 4.36 | < 4.30 | 4.77 | < 4.30 | 4.30 |
| C=C(C)[C@@H]1CC[C@]2(C(=O)OCc3oc(=O)oc3C)CC[C@]3(C)[C@H](CC[C@@H]4[C@@]5(C)Cc6nccnc6C(C)(C)[C@@H]5CC[C@]43C)[C@@H]12 | > 50 µM | > 50 µM | 5.44 | 4.31 | 5.00 | 4.89 | < 4.30 | 6.31 | 4.35 | 4.40 |
| CC1(C)C=C2[C@H]3CC[C@@H]4[C@@]5(C)Cc6nccnc6C(C)(C)[C@@H]5CC[C@@]4(C)[C@]3(C)CC[C@@]2(C(=O)O)CC1 | > 50 µM | > 50 µM | 4.82 | < 4.30 | < 4.30 | 4.60 | < 4.30 | 4.54 | < 4.30 | 4.40 |
| CC1(C)CC[C@]2(C(=O)O)CC[C@]3(C)C(=CC[C@@H]4[C@@]5(C)Cc6nccnc6C(C)(C)[C@@H]5CC[C@]43C)[C@@H]2C1 | > 50 µM | > 50 µM | 4.74 | < 4.30 | 4.30 | 4.47 | < 4.30 | 4.85 | < 4.30 | 4.30 |
| CC1(C)CC[C@]2(C(=O)O)CC[C@]3(C)C(=CC[C@@H]4[C@@]5(C)Cc6cccnc6C(C)(C)[C@@H]5CC[C@]43C)[C@@H]2C1 | > 50 µM | > 50 µM | 4.41 | < 4.30 | < 4.30 | < 4.30 | 4.89 | < 4.30 | < 4.30 | < 4.30 |
| CC1(C)C=C2[C@H]3CC[C@@H]4[C@@]5(C)Cc6cccnc6C(C)(C)[C@@H]5CC[C@@]4(C)[C@]3(C)CC[C@@]2(C(=O)O)CC1 | > 50 µM | > 50 µM | 5.10 | < 4.30 | < 4.30 | 4.82 | < 4.30 | 4.85 | < 4.30 | 4.33 |
| C=C(C)[C@@H]1CC[C@]2(C(=O)O)CC[C@]3(C)[C@H](CC[C@@H]4[C@@]5(C)CCC(=O)C(C)(C)[C@@H]5CC[C@]43C)[C@@H]12 [BETUNOLIC ACID] | 39 µM |  |  | 4.31 |  | 4.82 |  | 4.96 |  |  |
